Article PMC12592400, “A unique inhibitor conformation selectively targets the DNA polymerase PolC of Gram-positive priority pathogens” (Nature Communications, 2025)
In brackets after ≈: the same amount, converted by molar mass. Read-outs that look alike come from different tables or passages of the source.

Experiments:
[1] = test system: E. faecium strains with polC mutations (A1281T, F1276I, F1276L, F1276S); assay: Cross-resistance MIC of reduced susceptible E. faecium strains; assay type: cell-based, Enterococcus faecium; details: for MIC: Enterococcus faecium
Procedure: Strains with reduced susceptibility to ACX compounds were generated by WuXi Apptec on behalf of Acurx Pharmaceuticals, Inc., using E. faecium ATCC 700221 as parental strain.
Agar MICs for the wild-type strain were determined on Blood agar (Huankai). Compounds and linezolid were dissolved in 100% DMSO and vancomycin in ultrapure water. Strains were inoculated onto agar plates, incubated at 37 °C for 20-24 h after which colonies were suspended in sterile 0.9% saline at different bacterial concentrations. 5 μL of bacterial suspensions was individually spotted on agar plates supplemented with compounds at different concentrations, resulting in final concentrations of 10^–1, 10^–2, 10^–3, 10^–4, 10^–5, 10^–6, and 10^–7 per spot. After incubation for 20-24 h, bacterial growth was assessed by visual inspection.
For frequency of resistance (FOR) studies, colonies from the agar plate were suspended into sterile 0.9% saline to get 10^8-10^9 CFU bacterial cells per mL. […] The suspensions were also serially diluted with 0.9% saline and spotted onto agar to determine the actual inoculum. All agar plates were incubated at 37 °C for 48 h. FOR was defined as colony number on each compound-containing plate per CFU number of actual inoculum. Resistant colonies were subcultured on the corresponding compound plates to confirm that colonies were resistant and stable.
Confirmed resistant colonies were used for cross-resistance studies, as described above.
Paired-end short read sequencing data from selected mutants (generated by BGISEQ) as well as the corresponding wild-type parental strain was analysed against the reference genomes for E. faecium strain ATCC 700221 (https://genomes.atcc.org/genomes/f9d13a716ccb4f78) using Geneious R10.2.6 (Biomatters Ltd). Variants were called using the Find Variants/SNPs function with a minimum coverage of 10 and a minimum frequency of 0.8. […] This identified the following mutations in the polC gene: D1103Y in strain Efa4; F1276L in strains Efa030, Efa038, and Efa039; F1276I in strains Efa1 and Efa037; F1276S in strain Efa3; A1281T in strains Efa036, Efa040 and Efa041. Strains Efa036, Efa039, and Efa040 each had only one polymorphism identified.

[2] = test system: Enterococcus faecium ATCC 700221 (VRE; vancomycin-resistant); assay: Broth microdilution MIC; assay type: cell-based; details: for MIC: Enterococcus faecium, read-out: Measured MIC; for Measured MIC: Table 2, polC WT, strain ATCC 700221
Procedure: (§1) Minimal inhibitory concentrations (MICs) were determined by WuXi Apptec, on behalf of Acurx Pharmaceuticals, Inc., for the Gram-positive pathogens: Enterococcus faecium ATCC 700221 (VRE; vancomycin-resistant), Enterococcus faecalis ATCC 29212, Staphylococcus aureus NRS384 (MRSA; methicillin-resistant), Staphylococcus aureus ATCC 29213 (MSSA; methicillin-sensitive), and Streptococcus pneumoniae ATCC 49619 (PRSP; penicillin-resistant). As a control, Gram-negative Escherichia coli ATCC 25922 was included. All strains were obtained from ATCC with the exception of Staphylococcus aureus NRS384, which was obtained from NARSA (Network on Antimicrobial Resistance in Staphylococcus aureus, now part of BEI resources). Bacteria were cultured according to the manuals provided by the suppliers and stored in 25% glycerol (final concentration) at –80 °C.
(§2) Bacterial strains were streaked out onto MHA plates (Mueller-Hinton II Agar; BD-211438) and incubated at 37 °C for 20 h except for S. pneumoniae and Enterococci, which were streaked on blood agar (Huankai-24070). S. pneumoniae was incubated in 5% CO2. Single colonies were suspended in 5 mL sterile saline, the turbidity was adjusted to 0.20 (Siemens MicroScan turbidity metre; equal to ~1.0 × 10^8 colony forming units (CFU)/mL) and then diluted 200x in MHIIB (Mueller-Hinton II […] (BD-211438)) medium. The MHIIB media was supplemented with 5% Lysed Horse Blood (Shanghai YuanMu Biological Technology Co. Ltd. YM-U161) for S. pneumoniae.
(§3) ACX compounds were dissolved in pure DMSO (Sigma 276855) to a concentration of 20 mg/mL. From this, twofold serial dilutions (from […]) in DMSO were transferred to a 96-well source-plate (Axygen-wipp02280) with pure DMSO as a control. 2 µL from the source plate was then transferred into 96-well culture plates (Costar 3788) and inoculated with 198 µL of the bacterial suspension so that each well contained ~5.0 × 10^5 CFU/mL bacteria, 1% DMSO and serially diluted compounds at 0 µg/mL and 0.0625-64 µg/mL in 100 µl medium. For NRS384, which was tested in a separate experiment, 99 µL of bacterial suspension was added to 1 µL of compound. The plates were incubated in ambient atmosphere at 37 °C for 20 h.

[3] = test system: Staphylococcus aureus ATCC 29213 (MSSA; methicillin-sensitive); assay: Broth microdilution MIC; assay type: cell-based; details: read-out: Measured MIC
Procedure: as §1, §2, §3

[4] = test system: Enterococcus faecalis ATCC 29212; assay: Broth microdilution MIC; assay type: cell-based
Procedure: as §1, §2, §3

[5] = test system: Staphylococcus aureus NRS384 (MRSA; methicillin-resistant); assay: Broth microdilution MIC; assay type: cell-based; details: read-out: Measured MIC
Procedure: as §1, §2, §3

[6] = test system: Streptococcus pneumoniae ATCC 49619 (PRSP; penicillin-resistant); assay: Broth microdilution MIC; assay type: cell-based; details: read-out: Measured MIC
Procedure: as §1, §2, §3

[7] = test system: Escherichia coli ATCC 25922; assay: Broth microdilution MIC; assay type: cell-based
Procedure: as §1, §2, §3

[8] = ATCC29212, read-out: Measured MIC
[9] = ATCC25922, read-out: Measured MIC
[10] = read-out: Measured MIC, polC A1281T, strain Efa036, selected on 2 mg/L ACX-641
[11] = read-out: Measured MIC, polC A1281T, strain Efa040, selected on 4 mg/L ACX-671
[12] = read-out: Measured MIC, polC F1276I, strain Efa037, selected on 4 mg/L ACX-641
[13] = read-out: Measured MIC, polC F1276L, strain Efa030, selected on 16 mg/L ACX-728
[14] = read-out: Measured MIC, polC F1276S, strain Efa3, selected on 16 mg/L ACX-728

Row | Structure (SMILES) | MIC [2] [µg/mL] | Measured MIC [2] [µg/mL] | MIC [3] [µg/mL] | MIC [4, 8] [µg/mL] | MIC [6] [µg/mL] | MIC [7, 9] [µg/mL] | MIC [1, 10] [µg/mL] | MIC [1, 11] [µg/mL] | MIC [1, 12] [µg/mL] | MIC [1, 13] [µg/mL] | MIC [1, 14] [µg/mL] | also measured
1 | CN[C@H](CC(C)C)C(=O)N[C@H]1C(=O)N[C@@H](CC(N)=O)C(=O)N[C@H]2C(=O)N[C@H]3C(=O)N[C@H](C(=O)N[C@H](C(=O)O)c4cc(O)cc(O)c4-c4cc3ccc4O)[C@H](O)c3ccc(c(Cl)c3)Oc3cc2cc(c3O[C@@H]2O[C@H](CO)[C@@H](O)[C@H](O)[C@H]2O[C@H]2C[C@](C)(N)[C@H](O)[C@H](C)O2)Oc2ccc(cc2Cl)[C@H]1O [VAN, vancomycin] | > 64 | >64 | 1 (≈ 0.69 µM) | 4 (≈ 2.76 µM) | 0.25 (≈ 0.173 µM) | > 64 |  |  |  |  |  | MIC ([1]; read-out: Measured MIC): > 64 µg/mL; Measured MIC ([1]; polC A1281T, strain Efa036, selected on 2 mg/L ACX-641): >64 µg/mL; Measured MIC ([1]; polC F1276I, strain Efa037, selected on 4 mg/L ACX-641): >64 µg/mL; Measured MIC ([1]; polC F1276L, strain Efa030, selected on 16 mg/L ACX-728): >64 µg/mL; Measured MIC ([1]; polC F1276S, strain Efa3, selected on 16 mg/L ACX-728): >64 µg/mL; MIC [5]: 1 µg/mL (≈ 0.69 µM)
2 | CN(C)c1cc(CNCC(C)(C)C)c(O)c2c1C[C@H]1C[C@H]3[C@H](N(C)C)C(O)=C(C(N)=O)C(=O)[C@@]3(O)C(O)=C1C2=O [OMC, omadacycline] |  | 0.12 |  |  |  |  | 0.12 | 0.12 | ≤ 0.06 | 0.12 | ≤ 0.06 | MIC ([2]; E. faecium VRE ATCC 700221, Table 1, single replicate): 0.12 µg/mL (≈ 0.216 µM); MIC ([3]; S. aureus ATCC 29213, Table 1, single replicate): 0.5 µg/mL (≈ 0.898 µM); MIC ([4]; ATCC29212, E. faecalis ATCC 29212, Table 1, single replicate, read-out: Measured MIC): 0.25 µg/mL (≈ 0.449 µM); MIC ([6]; S. pneumoniae PRSP ATCC 49619, Table 1, single replicate): ≤ 0.06 µg/mL; MIC ([7]; ATCC25922, E. coli ATCC 25922, Table 1, single replicate, read-out: Measured MIC): 1 µg/mL (≈ 1.8 µM)
3 | CCCCCCCCCC(=O)N[C@@H](Cc1c[nH]c2ccccc12)C(=O)N[C@H](CC(N)=O)C(=O)N[C@@H](CC(=O)O)C(=O)N[C@@H]1C(=O)NCC(=O)N[C@@H](CCCN)C(=O)N[C@@H](CC(=O)O)C(=O)N[C@H](C)C(=O)N[C@@H](CC(=O)O)C(=O)NCC(=O)N[C@H](CO)C(=O)N[C@@H]([C@H](C)CC(=O)O)C(=O)N[C@@H](CC(=O)c2ccccc2N)C(=O)O[C@@H]1C [DAP, daptomycin] | 4 (≈ 2.47 µM) | 4 | 1 (≈ 0.617 µM) | 8 (≈ 4.94 µM) | 0.5 (≈ 0.309 µM) | > 64 | 4 | 4 | 2 | 2 | 2 | 
